The subject of one assay is NIH3T3 cells. The assay is described as follows: Toxicity test on NIH3T3 cells by MTT assay. The format is cell-based. For orientation: Tetrazolium dyes change colour on reduction, which living cells bring about.
In the next assay the test system is H1975 cells. The assay is described as follows: Cell growth inhibition by MTT assay, H1975 cells.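 As to all read-outs here: MTT read-out in 96-well plates after 72 h compound exposure of H1975 and A431 cells, with selectivity given as the A431 IC50 divided by the H1975 IC50.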 The class given is cell-based. The note with it: for IC50: MTT assay, 72 hours; for Selective inhibitory activity against cell growth [IC50 (A431 cell)/IC50 (H1975 cell)]: ratio of MTT IC50 values.
A further assay has as its target wild-type EGFR kinase (Homo sapiens (Human), UniProt P00533). The note with it: read-out: EGFR WT (IC50/μM); z'-lyte assay, 10 μM ATP.
Assay [1] addresses EGFR phosphorylation in A431 (EGFR wild-type) cells (Homo sapiens (Human), UniProt P00533). As to the kind of experiment: Inhibition of EGFR phosphorylation in A431 cells (ELISA). The format is cell-based. Conditions: 1 h compound treatment, EGF stimulation, read-out: A431 cell (IC50/μM).
Description: (§1) In the following methods, the reagents used, the preparation methods of solutions, the cell treatment and the preparation steps of the lysis solution, as well as the ELISA assay steps, were carried out according to the instructions of R&D DYC3570, R&D DYC1095E and R&D DYC1095BE.
I. Reagents and Solutions
(§2) Cell lysis solution: Cell lysis buffer+10 μg/mL Aprotinin (Sigma)+10 μg/mL Leupeptin (Sigma), prepared on site.
(§3) Wash buffer: PBS buffer containing 0.05% (v/v) Tween-20.
(§4) Blocking solution: PBS buffer containing 1% (w/v) BSA.
3.1 A431 Cell Treatment and Testing Procedures
(1) A431 cells (purchased from the Cell Bank of the Type Culture Collection Committee, Chinese Academy of Sciences) were seeded in 96-well plates at a density of 1×10^4/well in 90 μl of DMEM medium containing 10% FBS and cultured at 37° C. in 5% CO2 overnight.
(2) The A431 cell culture medium was replaced with 90 μl of serum-free DMEM medium and the plate was cultured overnight.
(3) The compound to be tested was diluted according to the drug dilution method in MTT assay. 10 μL of the diluted compound or diluted DMSO was added to the corresponding wells of the cell culture plate, and the final concentration of DMSO was 0.5%. The plate was cultured at 37° C. in 5% CO2 for 1 hour. […] The cells without EGF and drug treatment were used as cell control, and the cells treated with EGF without drugs were used as EGF control.
(4) The medium was removed and then 100 μL of the cell lysis solution was added. The plate was sealed and placed in a refrigerator at −80° C. overnight.
The assay was conducted according to the instructions given in R&D DYC3570E.
(1) R&D capture antibody (DYC3570E) was diluted with PBS in the proportion of 1:180.
(§5) (2) The plate was washed 3 times with 360 μL of the wash buffer.
(3) 200 μL of the blocking solution was added and the plate was incubated at 25° C. with shaking for 2 hours.
(4) The plate was washed 3 times with 360 μL of wash buffer.
(§6) (5) 40 μL of cell lysis buffer and 60 μL of cell lysis solution were added and the plate was incubated at 25° C. with shaking for 2 hours.
(§7) (6) The plate was washed 3 times with 360 μL of the wash buffer.
(§8) (7) The detection antibody was diluted with the detection antibody diluent in the proportion specified in the instructions of the kit. 100 μL of the diluted antibody was added to each well and the plate was incubated at 25° C. with shaking in dark for 1 h.
(8) The plate was washed 3 times with 360 μL of the wash buffer.
(9) A reagent and B reagent in TMB substrate (R&D DY999) were mixed in 1:1. 100 μL of the mixture was added to each well and incubated in dark at 25° C. with shaking for 20 min.
(§9) (10) 50 μL of 2N H2SO4 was added to each well.
(11) The plate was read with a microplate reader (Thermo Multiskan K3). OD 450 values and OD570 values of the cell control, blank control, and drug treatment wells were measured. ODEGF, ODdrug and ODcell were obtained by subtracting the corresponding OD570 value from the OD 450 value of the same well.
3.3 Data Analysis Inhibition rate (%)=100%×(ODEGF−ODdrug)/(ODEGF−ODcell)
Assay [2] deals with EGFR phosphorylation in H1975 (EGFR T790M mutant) cells (Homo sapiens (Human), UniProt P00533, L858R/T790M). As to the kind of experiment: Inhibition of EGFR phosphorylation in H1975 cells (ELISA).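 As to all read-outs here: Phospho-EGFR in cell lysates measured by capture-antibody ELISA with TMB substrate after compound exposure, cells given DMSO alone (0.5% final) serving as control.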 The class given is cell-based. The note with it: for IC50: ELISA of EGFR phosphorylation, 1 h compound treatment, read-out: H1975 cell (IC50/μM); for Selective inhibitory activity against targets at the cell level [IC50 (A431 cell)/IC50 (H1975 cell)]: ratio of ELISA IC50 values.
Sequence of EGFR phosphorylation in H1975 (EGFR T790M mutant) cells (P00533 25-1210 T790M/L858R): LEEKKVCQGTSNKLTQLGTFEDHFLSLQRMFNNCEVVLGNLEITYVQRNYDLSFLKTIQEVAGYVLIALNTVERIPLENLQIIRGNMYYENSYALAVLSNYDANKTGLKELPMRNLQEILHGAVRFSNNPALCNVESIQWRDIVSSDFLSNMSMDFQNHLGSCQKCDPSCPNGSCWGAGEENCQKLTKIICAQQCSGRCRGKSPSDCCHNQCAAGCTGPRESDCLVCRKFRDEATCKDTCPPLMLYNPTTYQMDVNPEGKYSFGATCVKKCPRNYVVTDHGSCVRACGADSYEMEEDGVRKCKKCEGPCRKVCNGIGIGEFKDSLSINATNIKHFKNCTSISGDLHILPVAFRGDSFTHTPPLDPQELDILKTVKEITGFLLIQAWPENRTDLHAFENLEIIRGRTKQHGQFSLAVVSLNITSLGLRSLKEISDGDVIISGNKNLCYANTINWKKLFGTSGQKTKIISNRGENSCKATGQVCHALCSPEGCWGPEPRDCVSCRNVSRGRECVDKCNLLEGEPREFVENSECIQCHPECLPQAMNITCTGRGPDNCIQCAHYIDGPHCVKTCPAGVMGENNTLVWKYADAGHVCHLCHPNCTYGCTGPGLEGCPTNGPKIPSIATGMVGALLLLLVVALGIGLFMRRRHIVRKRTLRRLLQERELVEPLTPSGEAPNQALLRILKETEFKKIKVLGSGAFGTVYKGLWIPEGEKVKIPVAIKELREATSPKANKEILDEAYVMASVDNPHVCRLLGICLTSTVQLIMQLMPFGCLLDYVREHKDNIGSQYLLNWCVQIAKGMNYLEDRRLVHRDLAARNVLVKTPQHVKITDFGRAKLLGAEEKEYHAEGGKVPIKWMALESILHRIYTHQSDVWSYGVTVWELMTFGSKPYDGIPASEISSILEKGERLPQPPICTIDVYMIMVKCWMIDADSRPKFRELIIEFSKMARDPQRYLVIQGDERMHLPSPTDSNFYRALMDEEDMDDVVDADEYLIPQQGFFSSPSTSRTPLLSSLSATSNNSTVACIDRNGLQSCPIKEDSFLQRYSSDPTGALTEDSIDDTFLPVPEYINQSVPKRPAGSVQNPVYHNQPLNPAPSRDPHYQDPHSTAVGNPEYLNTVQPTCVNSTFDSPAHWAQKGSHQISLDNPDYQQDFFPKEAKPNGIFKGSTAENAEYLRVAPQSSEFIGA
Description: as §1, §2, §3, §4
(1) H1975 cells (purchased from the Cell Bank of the Type Culture Collection Committee, Chinese Academy of Sciences) were seeded into 96-well plates at a density of 1×10^4/well, each cell containing 90 μl of RPMI1640 medium with 10% (V/V) FBS, and cultured overnight at 37° C. in 5% (v/v) CO2.
(2) The compounds to be tested were diluted in accordance with the drug dilution method in the MTT assay. 10 μL of the diluted compound or diluted DMSO was added to the corresponding wells of the cell culture plate, and the final concentration of DMSO was 0.5% (V/V). The plate was cultured at 37° C. in 5% (v/v) CO2 for 1 h. The cell culture system treated with DMSO alone was used as cell control.
(3) The medium was removed and then 100 μL of cell lysis solution was added. The plate was sealed and placed in a refrigerator at −80° C. overnight. The cell lysis buffer was used as blank control.
The assay was conducted according to the instructions given in R&D DYC1095E or R&D DYC1095BE.
(1) R&D capture antibody ((DYC1095BE or DYC1095E)) was diluted with PBS in the proportion of 1:180.
as §5
(3) 300 μL of the blocking solution was added and the plate was incubated at 25° C. with shaking for 2 hours.
(4) The plate was washed 3 times with 360 μL of the wash buffer.
as §6, §7, §8
(8) The plate was washed 3 times with 360 μL of wash buffer.
(9) A reagent and B reagent in the TMB substrate (R&D DY999) were mixed in 1:1. 100 μL of the mixture was added to each well and incubated in dark at 25° C. with shaking for 20 min.
as §9
(11) The plate was read with a microplate reader (Thermo Multiskan K3). OD 450 values and OD570 values of the cell control, blank control, and drug treatment wells were measured. ODcell, ODblank and ODdrug treatment were obtained by subtracting the corresponding OD570 value from the OD 450 value of the same well.
2.3 Data Analysis Inhibition rate (%)=100%×(ODcell−ODdrug treatment)/(ODcell−ODblank)

Another assay concerns A431 cells. The assay is described as follows: Cell growth inhibition by MTT assay, A431 cells. The class given is cell-based.
For assay [3], the target named is T790M/L858R double mutant EGFR kinase (Homo sapiens (Human), UniProt P00533, L858R/T790M). The assay is described as follows: z'-lyte assay of inhibitory activity on T790M/L858R double mutant EGFR kinase. The format is biochemical. The note with it: for Selective inhibitory activity against enzymes [IC50 (EGFR WT)/IC50 (T790M/L858R)]: ratio of enzyme IC50 values; for IC50: z'-lyte assay, 25 μM ATP.
Sequence of T790M/L858R double mutant EGFR kinase (P00533 25-1210 T790M/L858R): as above

The record followed here is patent US10085983B2, “Azabicyclo derivatives, process for preparation thereof and medical use thereof” (Shanghai Haiyan Pharmaceutical Technology Co., Ltd., priority 2014, dated 2018).

A value given as a limit tells only on which side of the number the result lay.

Sequence of EGFR phosphorylation in A431 (EGFR wild-type) cells (P00533 25-1210): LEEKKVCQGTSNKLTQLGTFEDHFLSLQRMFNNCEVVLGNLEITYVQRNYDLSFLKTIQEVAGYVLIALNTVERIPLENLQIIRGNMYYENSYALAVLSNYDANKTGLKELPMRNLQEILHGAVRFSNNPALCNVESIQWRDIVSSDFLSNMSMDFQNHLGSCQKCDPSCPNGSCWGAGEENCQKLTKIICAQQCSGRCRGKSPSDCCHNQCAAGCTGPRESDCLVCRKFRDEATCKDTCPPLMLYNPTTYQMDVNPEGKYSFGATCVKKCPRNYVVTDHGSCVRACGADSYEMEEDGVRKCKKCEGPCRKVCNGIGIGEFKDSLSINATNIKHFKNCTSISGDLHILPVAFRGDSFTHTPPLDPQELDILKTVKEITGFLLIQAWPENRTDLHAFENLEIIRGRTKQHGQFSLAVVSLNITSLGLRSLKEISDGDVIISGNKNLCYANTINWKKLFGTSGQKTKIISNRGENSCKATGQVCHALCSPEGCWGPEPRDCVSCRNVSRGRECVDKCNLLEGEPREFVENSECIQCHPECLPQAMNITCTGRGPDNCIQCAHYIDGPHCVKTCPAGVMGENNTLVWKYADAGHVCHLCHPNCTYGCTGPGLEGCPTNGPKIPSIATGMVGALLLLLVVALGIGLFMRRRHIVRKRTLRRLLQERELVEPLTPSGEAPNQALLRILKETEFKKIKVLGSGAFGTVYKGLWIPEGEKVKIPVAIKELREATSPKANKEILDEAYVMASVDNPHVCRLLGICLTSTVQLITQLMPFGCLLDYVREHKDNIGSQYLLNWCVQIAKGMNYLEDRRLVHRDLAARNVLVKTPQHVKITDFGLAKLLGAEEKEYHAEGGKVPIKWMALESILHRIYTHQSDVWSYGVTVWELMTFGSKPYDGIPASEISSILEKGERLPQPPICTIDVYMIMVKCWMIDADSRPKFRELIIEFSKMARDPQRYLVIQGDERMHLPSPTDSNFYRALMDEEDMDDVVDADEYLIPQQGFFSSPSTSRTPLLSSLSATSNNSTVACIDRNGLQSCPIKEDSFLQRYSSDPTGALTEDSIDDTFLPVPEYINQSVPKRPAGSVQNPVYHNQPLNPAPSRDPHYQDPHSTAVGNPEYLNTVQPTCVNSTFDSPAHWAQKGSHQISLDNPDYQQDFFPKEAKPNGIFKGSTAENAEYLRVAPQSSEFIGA
Sequence of wild-type EGFR kinase (P00533 25-1210): as above
Description for NIH3T3 cells: The steps of the MTT assay were carried out using methods well known to those skilled in the art, and all the reagents used in the methods are commercially available.
After the first wash, another 1.5 mL of trypsin/EDTA was added to digest the adherent cells until the cells detached. Then 3.5 mL of the culture medium was added to terminate the digestion. The digested cell suspension was transferred to a 15 mL centrifuge tube and centrifuged at 1300 rpm for 3 minutes. The supernatant was discarded and the cells were resuspended in fresh medium. The cells were then counted and diluted to the following concentrations: 27,800 cells per milliliter of H1975 cells, 33,300 cells per milliliter of A431 cells and NIH3T3 cells (purchased from the Cell Bank of the Type Culture Collection Committee, Chinese Academy of Sciences).
After the drug was added, the cells were incubated in an incubator for 72 hours. 10 μL of 5 mg/ml MTT (Sigma, M5655) solution was added to each well. The 96-well plate was then incubated in a 37° C. and 5% CO2 incubator for 4 h.
The plate was then centrifuged at 2000 rpm for 5 min. After the supernatant was removed, 150 μl of DMSO was added to each well and the plate was shaken in a shaker until all crystal violet was dissolved.
Description for wild-type EGFR kinase: All reagents used in the following z′-lyte assay were purchased from Invitrogen.
The working concentrations of each component in 10 μL wild-type EGFR kinase reaction system were: 10 μM ATP, 0.8 ng/μL wild-type EGFR kinase, 2 μM Tyr04 substrate (Invitrogen, PV3193). The concentration of DMSO after addition of the compound to be tested was 2 vol %.
10 mM drug stock solution was dissolved at room temperature and gradiently diluted to a final concentration of 4-0.002 μM with 8 vol % DMSO solution. […] Then 2.5 μl of ATP was added to initiate the reaction. Wherein, ATP was replaced by the reaction buffer in well C1, no drug was added to well C2, and the phosphorylated substrate was added to well C3 according to the instructions. The mixture was allowed to react at 25° C. in a shaker in dark for 60 min. 5 μL of Development Reagent B (Invitrogen, diluted with TR-FRET dilution buffer) was added and allowed to react at room temperature in the shaker for 60 minutes.
The inhibition rate was calculated according to the following method (refer to the instructions of Invitrogen, PV3193):
1. ER=Coumarin Emission (450 nm)/Fluorescein Emission (520 nm)
The half-inhibitory concentration IC50 was obtained through fitting calculation by using XLFIT 5.0 software (IDBS, UK).

As for `CN(C)C/C=C/C(=O)Nc1cc2c(Nc3ccc(F)c(Cl)c3)ncnc2cc1O[C@H]1CCOC1` [BIBW2992, alfatinib, reference compound], the IC50 was found to be 2.75 µM in the assay with NIH3T3 cells (Mus musculus, NIH3T3, 72 hours) and 0.088 µM in the assay with H1975 cells (Homo sapiens, NCI-H1975).
In the case of `C=CC(=O)Nc1cc(Nc2ncc3ccc(-c4cnn(C)c4)n3n2)c(OC)cc1N(C)CCN(C)C` [Compound J-1, N-(2-((2-(dimethylamino)ethyl)(methyl)amino)-4-methoxy-5-(7-(1-methyl-1H-pyrazol-4-yl)pyrrolo[1,2-f][1,2,4]triazin-2-ylamino)phenyl)acrylamide], the IC50 on wild-type EGFR kinase was determined as 0.004 µM; in assay [1] it was 0.112 µM; in assay [2], 0.012 µM; in the assay on A431 cells (72 hours), 0.327 µM; in the assay on NIH3T3 cells (72 hours), 4.83 µM; in assay [3], 0.001 µM. The compound further had an IC50 in the assay with H1975 cells of less than 0.00457 µM. In assay [2], the “Selective inhibitory activity against targets at the cell level [IC50 (A431 cell)/IC50 (H1975 cell)]” value was 9.3. Besides, in assay [3], the “Selective inhibitory activity against enzymes [IC50 (EGFR WT)/IC50 (T790M/L858R)]” value was 4. Also, the “Selective inhibitory activity against cell growth [IC50 (A431 cell)/IC50 (H1975 cell)]” value in the assay with H1975 cells is on record as 71.6.
Take `C=CC(=O)Nc1cc(Nc2ncc3ccc(-c4cnn(C)c4)n3n2)c(OC)cc1N1CCC(N(C)C)CC1` [Compound J-2, N-(2-(4-(dimethylamino)piperidin-1-yl)-4-methoxy-5-(7-(1-methyl-1H-pyrazol-4-yl)pyrrolo[1,2-f][11,2,4]triazin-2-ylamino)phenyl)acrylamide]: the IC50 stood at 0.023 µM on wild-type EGFR kinase; 0.303 µM in assay [1]; 0.025 µM in assay [2]; 0.403 µM in the assay with A431 cells (72 hours); 5.46 µM in the assay with NIH3T3 cells (72 hours); 0.002 µM in assay [3]. The same compound returned an IC50 in the assay with H1975 cells of 0.011 µM. Also, in assay [2], the “Selective inhibitory activity against targets at the cell level [IC50 (A431 cell)/IC50 (H1975 cell)]” value came out at 12.1. In addition, the “Selective inhibitory activity against enzymes [IC50 (EGFR WT)/IC50 (T790M/L858R)]” value in assay [3] is 11.5. Further, the “Selective inhibitory activity against cell growth [IC50 (A431 cell)/IC50 (H1975 cell)]” value in the assay with H1975 cells was 36.6.
Take `C=CC(=O)Nc1cc(Nc2ncc3ccc(-c4cnn(C)c4)n3n2)c(OC)cc1OCCN(C)C` [Compound J-3, N-(2-(2-(dimethylamino)ethoxyl)-4-methoxy-5-(7-(1-methyl-1H-pyrazol-4-yl)pyrrolo[1,2-f][1,2,4]triazin-2-ylamino)phenyl)acrylamide]: the IC50 at wild-type EGFR kinase was 0.01 µM; in assay [1], 0.093 µM; in assay [2], 0.001 µM; in the assay with A431 cells (72 hours), 0.168 µM; with NIH3T3 cells (72 hours) it was 3.91 µM; in assay [3], 0.001 µM. In the assay on H1975 cells, this compound had an IC50 of 0.008 µM. Further, the “Selective inhibitory activity against targets at the cell level [IC50 (A431 cell)/IC50 (H1975 cell)]” value in assay [2] was 93. Besides, the “Selective inhibitory activity against enzymes [IC50 (EGFR WT)/IC50 (T790M/L858R)]” value in assay [3] came out at 10. The “Selective inhibitory activity against cell growth [IC50 (A431 cell)/IC50 (H1975 cell)]” value in the assay with H1975 cells is 21.
On to `C=CC(=O)Nc1cc(Nc2ncc3ccc(-c4cnc5c(ccn5C)c4)n3n2)c(OC)cc1N(C)CCN(C)C` [Compound J-7, N-(2-((2-(dimethylamino)ethyl)(methyl)amino)-4-methoxy-5-(7-(1-methyl-1H-pyrrolo[2,3-b]pyridin-5-yl)pyrrolo[1,2-f][1,2,4]triazin-2-ylamino)phenyl)acrylamide], for which the IC50 on wild-type EGFR kinase came out at 0.005 µM; with A431 cells (72 hours), 0.231 µM; in the assay with NIH3T3 cells (72 hours), 3.38 µM; in assay [3] it was 0.002 µM; in the assay on H1975 cells, 0.01 µM. In addition, the “Selective inhibitory activity against enzymes [IC50 (EGFR WT)/IC50 (T790M/L858R)]” value in assay [3] is 2.5. In the assay on H1975 cells, the “Selective inhibitory activity against cell growth [IC50 (A431 cell)/IC50 (H1975 cell)]” value was determined as 23.1.
Regarding `C=CC(=O)Nc1cc(Nc2ncc3ccc(C4CC4)n3n2)c(OC)cc1N(C)CCN(C)C` [Compound J-8, N-(5(7-cyclopropylpyrrolo[1,2-f][1,2,4]triazin-2-ylamino)-2-((2-(dimethylamino)ethyl)(methyl)amino)-4-methoxyphenyl)acrylamide], the IC50 turned out to be 0.112 µM at wild-type EGFR kinase; 0.495 µM in assay [1]; 0.163 µM in assay [2]; 3.19 µM with A431 cells (72 hours); 0.002 µM in assay [3]; 0.097 µM with H1975 cells. Further, the “Selective inhibitory activity against targets at the cell level [IC50 (A431 cell)/IC50 (H1975 cell)]” value in assay [2] was found to be 3. Further, the “Selective inhibitory activity against enzymes [IC50 (EGFR WT)/IC50 (T790M/L858R)]” value in assay [3] came to 56. Also, the “Selective inhibitory activity against cell growth [IC50 (A431 cell)/IC50 (H1975 cell)]” value in the assay with H1975 cells came out at 32.9.
As to `C=CC(=O)Nc1cc(Nc2ncc3ccc(-c4cnc5ccccc5c4)n3n2)c(OC)cc1N(C)CCN(C)C` [Compound J-10, N-(2-((2-(dimethylamino)ethyl)(methyl)amino)-4-methoxy-5-(7-(quinolin-3-yl)pyrrolo[1,2-f][1,2,4]triazin-2-ylamino)phenyl)acrylamide], the IC50 on wild-type EGFR kinase came out at 0.003 µM; in the assay on A431 cells (72 hours), 0.147 µM; in the assay on NIH3T3 cells (72 hours) it was 3.27 µM; in assay [3], 0.001 µM; in the assay on H1975 cells it was 0.009 µM. For the same compound, the “Selective inhibitory activity against enzymes [IC50 (EGFR WT)/IC50 (T790M/L858R)]” value in assay [3] is 3. In the assay with H1975 cells, the “Selective inhibitory activity against cell growth [IC50 (A431 cell)/IC50 (H1975 cell)]” value came out at 16.3.
`C=CC(=O)Nc1cc(Nc2ncc3ccc(C)n3n2)c(OC)cc1N1CCC(N(C)C)CC1` [Compound J-14, N-(2-(4-(dimethylamino)piperidin-1-yl)-4-methoxy-5-(7-methylpyrrolo[1,2-f][1,2,4]triazin-2-ylamino)phenyl)acrylamide]: the IC50 with A431 cells (72 hours) was found to be 3.56 µM; in the assay on NIH3T3 cells (72 hours), 7.77 µM; in the assay on H1975 cells, 0.126 µM.
Turning to `C=CC(=O)Nc1cc(Nc2ncc3ccc(C4CC4)n3n2)c(OC)cc1N1CCC(N(C)C)CC1` [Compound J-15, N-(5(7-cyclopropylpyrrolo[1,2-f][1,2,4]triazin-2-ylamino)-2-(4-(dimethylamino)piperidin-1-yl)-4-methoxyphenyl)acrylamide], the IC50 at wild-type EGFR kinase was more than 1 µM. In assay [3], the “Selective inhibitory activity against enzymes [IC50 (EGFR WT)/IC50 (T790M/L858R)]” value came to 3.8 and the IC50 is 0.262 µM.
`C=CC(=O)Nc1cc(Nc2cn3c(-c4ccn(C)c4)cnc3cn2)c(OC)cc1N(C)CCN(C)C` [Compound J-16, N-(2-((2-(dimethylamino)ethyl)(methyl)amino)-4-methoxy-5-(3(1-methyl-1H-pyrrol-3-yl)imidazo[1,2-a]pyrazin-6-ylamino)phenyl)acrylamide]: the IC50 in assay [1] is 0.211 µM; in assay [2] it was 0.171 µM; in the assay with A431 cells (Homo sapiens, A-431, 72 hours), 1.15 µM; in the assay on NIH3T3 cells (Mus musculus, NIH3T3, 72 hours), more than 10 µM; with H1975 cells (Homo sapiens, NCI-H1975), 0.388 µM. The “Selective inhibitory activity against targets at the cell level [IC50 (A431 cell)/IC50 (H1975 cell)]” value in assay [2] came to 1.2. The “Selective inhibitory activity against cell growth [IC50 (A431 cell)/IC50 (H1975 cell)]” value in the assay with H1975 cells was 3.
As to `C=CC(=O)Nc1cc(Nc2cn3c(-c4cccnc4)cnc3cn2)c(OC)cc1N(C)CCN(C)C` [Compound J-17, N-(2-((2-(dimethylamino)ethyl)(methyl)amino)-4-methoxy-5-(3(pyridin-3-yl)imidazo[1,2-a]pyrazin-6-ylamino)phenyl)acrylamide], the IC50 is 1.16 µM in assay [1]; 0.734 µM in assay [2]; 2.95 µM with A431 cells (Homo sapiens, A-431, 72 hours); more than 10 µM with NIH3T3 cells (Mus musculus, NIH3T3, 72 hours); 0.424 µM with H1975 cells (Homo sapiens, NCI-H1975). In addition, in assay [2], the “Selective inhibitory activity against targets at the cell level [IC50 (A431 cell)/IC50 (H1975 cell)]” value was found to be 1.6. Also, in the assay with H1975 cells, the “Selective inhibitory activity against cell growth [IC50 (A431 cell)/IC50 (H1975 cell)]” value is listed as 7.
In the case of `C=CC(=O)Nc1cc(Nc2cn3c(-c4cnn(C)c4)cnc3cn2)c(OC)cc1N(C)CCN(C)C` [Compound J-18, N-(2-((2-(dimethylamino)ethyl)(methyl)amino)-4-methoxy-5-(3(-methyl-1H-pyrazol-4-yl)imidazo[1,2-α]pyrazin-6-ylamino)phenyl)acrylamide], the IC50 in the assay on A431 cells (72 hours) is 1.56 µM; in the assay on NIH3T3 cells (72 hours), more than 10 µM; in the assay on H1975 cells it was 0.251 µM. Further, the “Selective inhibitory activity against cell growth [IC50 (A431 cell)/IC50 (H1975 cell)]” value in the assay with H1975 cells was 6.2.
With `C=CC(=O)Nc1cc(Nc2cn3c(-c4cnn(C)c4)cnc3cn2)c(OC)cc1N1CCC(N(C)C)CC1` [Compound J-19, N-(2-(4-(dimethylamino)piperidin-1-yl)-4-methoxy-5-(3(1-methyl-1H-pyrazol-4-yl)imidazo[1,2-α]pyrazinyl 6-amino)phenyl)acrylamide], the IC50 is 0.327 µM in assay [1]; 0.289 µM in assay [2]; 1.21 µM in the assay with A431 cells (72 hours); more than 10 µM in the assay with NIH3T3 cells (72 hours); 0.243 µM in the assay on H1975 cells. The “Selective inhibitory activity against targets at the cell level [IC50 (A431 cell)/IC50 (H1975 cell)]” value in assay [2] stood at 1.13. The “Selective inhibitory activity against cell growth [IC50 (A431 cell)/IC50 (H1975 cell)]” value with H1975 cells was 5.
On to `C=CC(=O)Nc1cc(Nc2ncc3c(C)cc(-c4cnn(C)c4)n3n2)c(OC)cc1N(C)CCN(C)C` [Compound J-20, N-(2-((2-(dimethylamino)ethyl)(methyl)amino)-4-methoxy-5-(5-methyl-7-(1-methyl-1H-pyrazol-4-yl)pyrrolo[1,2-F][1,2,4]triazin-2-ylamino)phenyl)acrylamide], for which, at wild-type EGFR kinase, the IC50 was determined as 0.294 µM. In addition, in assay [3], the “Selective inhibitory activity against enzymes [IC50 (EGFR WT)/IC50 (T790M/L858R)]” value was determined as 24.5 and the IC50 is 0.012 µM.
Take `C=CC(=O)Nc1cc(Nc2ncc3c(C)cc(-c4cnn(C)c4)n3n2)c(OC)cc1N1CCC(N(C)C)CC1` [Compound J-21, N-(2-(4-(dimethylamino)piperidin-1-yl)-4-methoxy-5-(5-methyl-7-(1-methyl-1H-pyrazol-4-yl)pyrrolo[1,2-F][1,2,4]triazin-2-ylamino)phenyl)acrylamide]: the IC50 on wild-type EGFR kinase was more than 1 µM. In addition, in assay [3], the “Selective inhibitory activity against enzymes [IC50 (EGFR WT)/IC50 (T790M/L858R)]” value was found to be 3.4 and the IC50 was 0.294 µM.
